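Five concentrations, 48 hours, 96-well plates. TGI is the concentration that stops growth completely.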

Seven compounds from PubChem BioAssay (NCI) can be followed below.

Common to all, as to test: inhibition of tumour cell growth, NCI panel, 48 h
The test system of assay [1] is A549 NSCLC.
Assay [2] concerns MDA-MB-435.
Assay [3] deals with U251 CNS.
For assay [4], the system named is PC-3 prostate.
For assay [5], the system named is NCI-H23 lung.
Assay [6] has as its system 786-0 renal.
The test system of assay [7] is SNB-19 CNS.
In assay [8] the test system is OVCAR-5 ovarian.
The subject of assay [9] is MDA-MB-231 breast.
The subject of assay [10] is SN12C renal.
For assay [11], the system named is ACHN renal.
In assay [12] the test system is LOX IMVI melanoma.
In assay [13] the test system is UACC-257 melanoma.
Assay [14] relates to HCC-2998 colon.
In assay [15] the test system is SR leukemia.
For assay [16], the system named is HT29 colon.
In assay [17] the test system is DU-145 prostate.
The test system of assay [18] is COLO 205 colon.
For assay [19], the system named is SK-OV-3 ovarian.

As to `CCCCCC(=O)CCCCCCCC(O)CC(=O)OCC` (centres undefined), the TGI in assay [1], in [2], in [3], in assay [4], in assay [5] and in assay [6] was above 100 µM throughout. Besides, the TGI in assay [7], in assay [8], in assay [9], in assay [10], in assay [11] and in [12] was above 100 µM throughout. Moreover, the TGI in assay [13], in [14], in [15], in assay [16] and in assay [17] was above 100 µM throughout.
Turning to `CC1=CCC(C)=Nc2nc3ccccc3n21`, the TGI in assay [1], in [2], in assay [3], in assay [4], in assay [5] and in assay [6] was above 100 µM in each case. Further, the TGI in [7], in assay [8], in assay [18], in assay [9], in assay [10] and in assay [11] was above 100 µM in each case. The TGI in assay [12], in assay [13], in [15], in assay [16], in assay [17] and in [19] was above 100 µM throughout.
Regarding `O=C(c1cccs1)N(C(=O)N1CCN(c2ccccc2)CC1)S(=O)(=O)c1ccccc1`, the TGI in assay [1] came out at 98.4 µM; in assay [2] it was 70.6 µM; in [3], 33.3 µM; in assay [4] it was 94.6 µM; in assay [5], 59.5 µM; in assay [6], 59.4 µM. The TGI came out at 72.2 µM in [7]; 55.7 µM in assay [8]; 30.1 µM in [18]; 51.6 µM in assay [9]; 35.1 µM in assay [10]; 39.9 µM in [11]. In addition, the TGI in assay [13] was 69.9 µM; in [14] it was above 100 µM; in assay [15], 49.3 µM; in [16] it was above 100 µM; in assay [17], 60.9 µM; in assay [19], above 100 µM.
For the compound `O=C1c2cccc3cccc(c23)C(=O)N1CCCNCCCNCCCCNCCCNCCCN1C(=O)c2cccc3cccc(c23)C1=O`, the TGI amounted to 12.9 µM in assay [1]; 10.1 µM in assay [2]; 20.2 µM in assay [3]; 13.4 µM in [4]; 16 µM in [5]; 6.12 µM in assay [6]. The TGI is 15.9 µM in [7]; 21.9 µM in assay [8]; 22.4 µM in assay [9]; 16.4 µM in [10]; 15.3 µM in assay [11]; above 38.1 µM in assay [12]. Besides, the TGI in assay [13] was 22.6 µM; in assay [14] it was 16.8 µM; in assay [15], above 31.8 µM; in assay [16], 5.5 µM; in assay [17], 14 µM; in assay [19], 32.1 µM.
Turning to `Cc1c(O)c(OC2OC(CO)C(O)C(O)C2O)cc2c1CC[C@@H]1C2(C)C(=O)C[C@]2(C)[C@@H]([C@@](C)(O)C(=O)CCC(C)(C)O)[C@H](O)C[C@@]12C` (some centres undefined), the TGI in assay [1], in [2], in assay [3], in assay [4], in [5] and in assay [6] was above 100 µM throughout. Further, the TGI in assay [7], in assay [8], in assay [18], in assay [9], in assay [10] and in assay [11] was above 100 µM each time. Also, the TGI in [13], in assay [14], in assay [15], in assay [16], in [17] and in [19] was above 100 µM each time.
On to `CC(C)CC(NC(=O)C(CI)Cc1ccccc1)C(=O)Nc1ccccc1` (centres undefined), for which the TGI in assay [1], in [2], in assay [3], in assay [4], in assay [5] and in assay [6] was above 100 µM throughout. In addition, the TGI in assay [7], in assay [8], in assay [18], in [9], in assay [10] and in [11] was above 100 µM in each case. Also, the TGI in [12], in assay [13], in assay [14], in [15], in [17] and in assay [19] was above 100 µM each time.
`Nc1nc(Cl)c(N)c(NCC2(CO)CCCC2)n1`: the TGI in [1], in assay [2], in assay [3], in [4], in [6] and in assay [7] was above 100 µM in each case. The TGI in assay [8], in assay [9], in assay [10], in assay [11], in assay [12] and in assay [13] was above 100 µM in each case. The TGI is above 100 µM in [14]; above 100 µM in assay [15]; above 100 µM in assay [16]; above 100 µM in assay [17]; 24.2 µM in assay [19].
